Experimental data taken from ChEMBL document CHEMBL1201862, “PubChem BioAssay data set” (2004).
The source made the active and inactive calls. Cut-off read from the data, not from the text of the source, for most assays here: actives have a measured EC50 and inactives only a lower limit.

System: Streptococcus
Assay: GAS UMAA2166 growth inhibition – luminescence, BacTiterGlo, counter-screen for streptokinase expression inhibitor project, dose response (AID 1915);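 note: potency for reduction of bacterial viability or growth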
Assay type: functional, organism-based
Conditions: not given

Compound | EC50
CC(C)(C)NS(=O)(=O)c1ccc(NS(=O)(=O)Cc2ccccc2)cc1 | > 150 µM (not active)
O=C(Nc1scc(-c2ccc(Br)cc2)c1C(=O)O)c1ccccc1F | 11 µM (active)
COc1ccccc1Oc1c[nH]nc1-c1ccc(OCC(=O)NN)cc1O | > 150 µM (not active)
CCCC(=O)NCCc1ccc(F)cc1 | > 150 µM (not active)
O[C@@H]1CCCN2CCc3c([nH]c4ccccc34)[C@H]12 | > 150 µM (not active)
Cc1ccc(C(C)C)cc1OCC(=O)Nc1ccccc1N1CCCC1 | > 150 µM (not active)
Nc1nc(CN2CCC(Cc3ccccc3)CC2)nc(Nc2ccccc2)n1 | > 150 µM (not active)
COc1cc(/C=C2\SC(Nc3cccnc3)=NC2=O)cc(OC)c1OC | 68.5 µM (active)

System: not listed separately
Assay: fluconazole-exposed Candida albicans growth modulators – fluorescence, retest, confirmation (AID 2467)
Assay type: functional, cell-based
Conditions: not given

Compound | EC50
C=C(C)CNC(=S)N/N=C1\CCCCc2ccccc21 | 6.24 µM (active)
Cc1ccsc1/C=N/NS(=O)(=O)c1ccc([N+](=O)[O-])cc1 | 1.81 µM (active)
CN(/C(=N/S(=O)(=O)c1cccs1)c1ccccc1)c1ccc(O)cc1 | > 38 µM (not active)
O=C(NNC(=O)c1cc2ccccc2cc1O)Nc1ccccc1F | > 38 µM (not active)
O=C1NCCN1CCNS(=O)(=O)c1cc(C(F)(F)F)cc(C(F)(F)F)c1 | > 38 µM (not active)
O=C(ONC1=NCCCCC1)c1cccc([N+](=O)[O-])c1 | 2.12 µM (active)

System: H4
Assay: Luminescence Cell-Based Dose Response HTS to Identify Activators of 5'UTR Stem-Loop Driven Prion Protein mRNA Translation in H4 Neuroglioblastoma Cells. [Related pubchem assays: 1829 (Project Summary), 1814 (Primary HTS)]
Assay type: functional
Conditions: Homo sapiens

Compound | EC50
CC(C)C/C=C1\CCc2c([nH]c3ccccc23)C1=O | 45.4 µM (active)

Target: T1, Corticotropin-releasing factor receptor 2/Corticotropin-releasing factor-binding protein (Homo sapiens, UniProt P24387+Q13324)
T1 sequence (Q13324 whole entry): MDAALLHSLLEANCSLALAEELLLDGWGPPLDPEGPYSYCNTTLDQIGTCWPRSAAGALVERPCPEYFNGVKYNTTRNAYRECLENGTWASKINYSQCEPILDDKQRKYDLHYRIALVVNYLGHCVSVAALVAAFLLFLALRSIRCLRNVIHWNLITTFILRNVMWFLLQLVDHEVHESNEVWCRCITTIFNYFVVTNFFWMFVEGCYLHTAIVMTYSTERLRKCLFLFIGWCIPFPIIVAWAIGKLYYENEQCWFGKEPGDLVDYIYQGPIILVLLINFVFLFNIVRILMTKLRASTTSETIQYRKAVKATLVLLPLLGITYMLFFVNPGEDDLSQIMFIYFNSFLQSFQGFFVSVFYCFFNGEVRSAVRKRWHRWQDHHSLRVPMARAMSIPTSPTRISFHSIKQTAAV
T1 sequence (P24387 whole entry): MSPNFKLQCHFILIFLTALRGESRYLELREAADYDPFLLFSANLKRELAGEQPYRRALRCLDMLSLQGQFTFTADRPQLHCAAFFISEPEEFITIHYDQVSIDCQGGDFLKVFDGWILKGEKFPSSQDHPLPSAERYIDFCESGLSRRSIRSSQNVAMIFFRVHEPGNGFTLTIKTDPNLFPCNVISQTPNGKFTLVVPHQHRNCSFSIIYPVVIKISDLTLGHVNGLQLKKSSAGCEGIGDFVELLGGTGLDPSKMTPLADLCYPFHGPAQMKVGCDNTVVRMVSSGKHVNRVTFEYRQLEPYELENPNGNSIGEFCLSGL
Assay: activators of CRF receptor 2 with binding protein – uHTS hits, confirmation (AID 602473)
Assay type: functional
Conditions: read-out: EC50_Mean

Compound | EC50
Cc1cc(NC(=O)CN2C(=O)NC(CC(C)C)C2=O)no1 (centres undefined) | > 53 µM (inactive)
O=C(COc1ccc(Cl)cc1Cl)Nc1ccccc1NS(=O)(=O)c1cccs1 | 33.1 µM (active)
CCn1c(SCC(=O)N2CCCCC2)nc2c(c1=O)SCC2 | > 53 µM (inactive)
CC(C)c1ccc(/C=N/NC(=O)c2cc(-c3cccc([N+](=O)[O-])c3)[nH]n2)cc1 | > 53 µM (inactive)
Cc1nn(C)cc1C(C(=O)NC1CCCCC1)N(C(=O)Cc1cccs1)c1ccc(Cl)cc1 (centres undefined) | 12 µM (active)

Target: T2, Zinc finger protein mex-5 (Caenorhabditis elegans, UniProt Q9XUB2)
T2 sequence (Q9XUB2 whole entry): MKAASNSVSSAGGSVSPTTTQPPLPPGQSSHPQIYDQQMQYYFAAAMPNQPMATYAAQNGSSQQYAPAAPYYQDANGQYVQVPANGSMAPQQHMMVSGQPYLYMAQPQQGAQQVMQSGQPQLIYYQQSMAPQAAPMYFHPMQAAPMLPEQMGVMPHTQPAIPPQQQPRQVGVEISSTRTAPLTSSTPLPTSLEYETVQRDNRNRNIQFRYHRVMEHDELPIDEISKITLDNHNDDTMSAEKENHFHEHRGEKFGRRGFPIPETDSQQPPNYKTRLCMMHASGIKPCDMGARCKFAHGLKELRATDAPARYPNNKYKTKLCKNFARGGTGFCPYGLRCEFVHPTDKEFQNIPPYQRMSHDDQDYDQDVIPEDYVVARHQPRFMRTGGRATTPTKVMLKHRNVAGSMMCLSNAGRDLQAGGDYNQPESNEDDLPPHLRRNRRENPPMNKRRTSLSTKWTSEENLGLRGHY
Assay: potency of MEX-5 RNA-binding blockers – biochemical, C. elegans, fluorescence polarization, dose response (AID 1960)
Conditions: not given

Compound | EC50
COc1ccccc1Oc1c[nH]nc1-c1ccc(OCC(=O)NN)cc1O | 120 µM (active)

System: not listed separately
Assay: NIH-3T3 fibroblast cytotoxicity, dose response, cytotoxicity control, cell-based, fluorescence, Alamar Blue, secondary assay (AID 2327);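 note: NIH-3T3 mouse fibroblasts cultured with fluconazole at 8 µg/mL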
Assay type: functional
Conditions: not given

Compound | EC50
C=C(C)CNC(=S)N/N=C1\CCCCc2ccccc21 | 62.5 µM (active)
Cc1ccsc1/C=N/NS(=O)(=O)c1ccc([N+](=O)[O-])cc1 | > 150 µM (inactive)
CN(/C(=N/S(=O)(=O)c1cccs1)c1ccccc1)c1ccc(O)cc1 | > 150 µM (inactive)
O=C(NNC(=O)c1cc2ccccc2cc1O)Nc1ccccc1F | > 160 µM (inactive)
O=C1NCCN1CCNS(=O)(=O)c1cc(C(F)(F)F)cc(C(F)(F)F)c1 | > 150 µM (inactive)
O=C(ONC1=NCCCCC1)c1cccc([N+](=O)[O-])c1 | > 150 µM (inactive)

System: H9c2;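 note: confirmatory concentration-response retest of ultra-high-throughput screening hits for modulation of myocardial damage; cell death induced by hydrogen peroxide oxidative stress; compound pretreatment for 60 min then peroxide exposure for 2 h; potency is for protecting the cells against peroxide damage rather than for killing them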
Assay: cells
Assay type: functional, cell-based
Conditions: Rattus norvegicus, H9c2, Myocardium

Compound | IC50
Cc1nn(C)cc1C(C(=O)NC1CCCCC1)N(C(=O)Cc1cccs1)c1ccc(Cl)cc1 (centres undefined) | 15.2 µM (active)

System: Streptococcus sp. 'group A'
Assay: Streptococcus pyogenes SK(-)GAS viability under kanamycin – luminescence, BacTiterGlo, confirmation, counter-screen for streptokinase expression inhibitor project, dose response (AID 1900)
Assay type: functional, organism-based
Conditions: not given

Compound | EC50
CC(C)(C)NS(=O)(=O)c1ccc(NS(=O)(=O)Cc2ccccc2)cc1 | > 150 µM (not active)
O=C(Nc1scc(-c2ccc(Br)cc2)c1C(=O)O)c1ccccc1F | 2.83 µM (active)
COc1ccccc1Oc1c[nH]nc1-c1ccc(OCC(=O)NN)cc1O | > 150 µM (not active)
CCCC(=O)NCCc1ccc(F)cc1 | > 150 µM (not active)
O[C@@H]1CCCN2CCc3c([nH]c4ccccc34)[C@H]12 | > 150 µM (not active)
Nc1nc(CN2CCC(Cc3ccccc3)CC2)nc(Nc2ccccc2)n1 | 14.8 µM (active)
COc1cc(/C=C2\SC(Nc3cccnc3)=NC2=O)cc(OC)c1OC | 36.8 µM (active)

Target: T3, RNA-binding protein pos-1 (Caenorhabditis elegans, UniProt G5EF15)
T3 sequence (G5EF15 whole entry): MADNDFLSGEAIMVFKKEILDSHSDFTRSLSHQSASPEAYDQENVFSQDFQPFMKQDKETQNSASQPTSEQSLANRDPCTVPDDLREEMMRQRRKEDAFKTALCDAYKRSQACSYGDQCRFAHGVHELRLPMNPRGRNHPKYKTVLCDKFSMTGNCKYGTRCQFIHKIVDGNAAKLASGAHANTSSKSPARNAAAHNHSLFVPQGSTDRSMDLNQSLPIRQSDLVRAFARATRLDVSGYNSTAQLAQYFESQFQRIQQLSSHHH
Assay: disruptors of C. elegans POS-1 RNA interaction – biochemical, fluorescence polarization, dose response (AID 1964);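 note: purified POS-1 fused to maltose binding protein made in E. coli; potency of compounds blocking POS-1 binding to fluorescent RNA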
Conditions: not given

Compound | EC50
COc1ccccc1Oc1c[nH]nc1-c1ccc(OCC(=O)NN)cc1O | > 300 µM (not active)

System: not listed separately
Assay: Luminescence Cell-Based Dose Response HTS to Identify Activators of Luciferase Translation or Activity in H4 […] Cells. [Related pubchem assays: 1829 (Project Summary), 1814 (Primary HTS)]
Assay type: functional
Conditions: not given

Compound | EC50
CC(C)C/C=C1\CCc2c([nH]c3ccccc23)C1=O | 27.8 µM (active)

Target: T1, Corticotropin-releasing factor receptor 2/Corticotropin-releasing factor-binding protein
Assay: Dose Response confirmation of uHTS hits for small molecule antagonists of the CRF-binding protein and CRF-R2 receptor complex.
Assay type: functional
Conditions: read-out: IC50_Mean

Compound | IC50
Cc1cc(NC(=O)CN2C(=O)NC(CC(C)C)C2=O)no1 (centres undefined) | > 47.1 µM (inactive)
O=C(COc1ccc(Cl)cc1Cl)Nc1ccccc1NS(=O)(=O)c1cccs1 | > 47.1 µM (inactive)
CCn1c(SCC(=O)N2CCCCC2)nc2c(c1=O)SCC2 | > 47.1 µM (inactive)
CC(C)c1ccc(/C=N/NC(=O)c2cc(-c3cccc([N+](=O)[O-])c3)[nH]n2)cc1 | > 47.1 µM (inactive)

Target: T4, Streptokinase A (Streptococcus pyogenes serotype M1, UniProt P10520)
T4 sequence (P10520 whole entry): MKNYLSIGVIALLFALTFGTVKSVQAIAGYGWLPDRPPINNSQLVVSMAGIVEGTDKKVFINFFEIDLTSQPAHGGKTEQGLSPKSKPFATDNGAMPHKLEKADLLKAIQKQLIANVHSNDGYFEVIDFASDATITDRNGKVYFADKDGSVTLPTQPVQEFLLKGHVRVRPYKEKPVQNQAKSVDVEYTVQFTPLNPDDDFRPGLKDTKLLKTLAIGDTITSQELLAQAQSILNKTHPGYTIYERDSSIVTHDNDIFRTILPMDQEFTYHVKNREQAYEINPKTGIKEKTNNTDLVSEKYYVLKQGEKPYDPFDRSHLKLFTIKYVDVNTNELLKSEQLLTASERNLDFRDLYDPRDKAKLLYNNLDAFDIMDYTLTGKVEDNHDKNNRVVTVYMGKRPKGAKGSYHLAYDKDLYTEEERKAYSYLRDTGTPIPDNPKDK
Assay: viability-normalized secreted streptokinase activity reduction – plasminogen activation absorbance, OD405, dose response (AID 1914);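 note: secreted streptokinase activity via plasminogen activation per viability signal from cell pellet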
Assay type: functional, Streptococcus pyogenes M1 GAS
Conditions: not given

Compound | EC50
CC(C)(C)NS(=O)(=O)c1ccc(NS(=O)(=O)Cc2ccccc2)cc1 | > 150 µM (not active)
O=C(Nc1scc(-c2ccc(Br)cc2)c1C(=O)O)c1ccccc1F | 9.9 µM (active)
COc1ccccc1Oc1c[nH]nc1-c1ccc(OCC(=O)NN)cc1O | > 150 µM (not active)
CCCC(=O)NCCc1ccc(F)cc1 | > 150 µM (not active)
O[C@@H]1CCCN2CCc3c([nH]c4ccccc34)[C@H]12 | > 150 µM (not active)
Cc1ccc(C(C)C)cc1OCC(=O)Nc1ccccc1N1CCCC1 | 14.1 µM (active)
Nc1nc(CN2CCC(Cc3ccccc3)CC2)nc(Nc2ccccc2)n1 | > 150 µM (not active)
COc1cc(/C=C2\SC(Nc3cccnc3)=NC2=O)cc(OC)c1OC | > 150 µM (not active)
